Measured values published in patent US20220024921A1, “1,3,4-OXADIAZOLONE COMPOUND AND PHARMACEUTICAL” (NIPPON SHINYAKU CO., LTD., priority 2018, published 2022).
pIC50: −log10 of the molar value. Structures can show the parent of a compound that is named as a salt.

Tests used:
[1] = target: T1, PIM1 serine/threonine kinase (Homo sapiens, UniProt P11309); test: PIM1 serine/threonine kinase inhibitory effect; format: biochemical; conditions: PIM1 serine/threonine kinase activity; ATP 40 μM; 30° C., 30 minutes
T1 construct: purchased Carna Bioscience, Inc
T1 sequence (P11309 whole entry): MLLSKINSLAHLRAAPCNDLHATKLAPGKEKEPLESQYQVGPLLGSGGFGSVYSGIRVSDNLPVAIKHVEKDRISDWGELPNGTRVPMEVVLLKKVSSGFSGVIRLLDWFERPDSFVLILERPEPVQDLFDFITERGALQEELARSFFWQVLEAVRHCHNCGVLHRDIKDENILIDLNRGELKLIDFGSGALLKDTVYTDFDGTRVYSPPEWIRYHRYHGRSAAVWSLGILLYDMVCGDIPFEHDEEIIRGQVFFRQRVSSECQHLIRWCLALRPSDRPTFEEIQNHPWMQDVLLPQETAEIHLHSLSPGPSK
Outline: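 Compounds were tested in duplicate from 0.01 to 10000 nM final against PIM1 kinase (0.15 μg/ml). The reaction ran for 30 minutes at 30° C with 40 μM ATP and 0.5 μM biotin-tagged substrate at pH 7.0. Phosphorylation was read by time-resolved FRET (OD665/OD620) after 1 h; IC50 by non-linear fit.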

[2] = target: PIM1 transgenic cells (Ba/F3) (Homo sapiens, UniProt P11309); test: Proliferation inhibitory effect on PIM1 transgenic cells; format: cell-based, mouse; conditions: proliferation inhibition, 72 hours, Cell Counting Kit-8, read-out: PIM1 IC50
Chain of PIM1 transgenic cells (Ba/F3) (P11309 whole entry, stated change not applied): as the sequence (P11309 whole entry) above
From the text: Human PIM1, 2, and 3 genes were inserted into the multi-cloning sites of retrovirus expression vectors pMYs-IRES-GFP, respectively, to prepare gene transfer vectors. Then, each gene transfer vector was introduced into packaging cells PLAT-E derived from a human fetal kidney cell line in the logarithmic growth phase, using a transfection reagent (FuGENE6, Promega Corporation). Since the culture supernatant of PLAT-E after gene transfer contained virus particles for gene transfer, the culture supernatant was collected and used as a medium for gene transfer. The medium for gene transfer was added to a plate coated with RetroNectin, and the plate was incubated to attach the virus particles to the plate. Then, a mouse pro-B cell line Ba/F3 in the logarithmic growth phase was seeded on the plate and infected with the virus to prepare PIM1, 2, or 3 transgenic cells that proliferate in a PIM 1, 2, or 3-dependent manner. The expression of PIM1, 2, or 3 protein in each cell was confirmed by Western blotting.
Each test substance was prepared to 10 mM with dimethylsulfoxide (DMSO), and diluted with DMSO so as to have concentrations of 3000, 1000, 300, 100, 30, 10, 3, and 1 μM. Moreover, each dilution was further diluted 10-fold with distilled water to prepare a test substance solution.
PIM1, 2, 3-expressing cells were seeded on a 96-well plate, and each test substance solution prepared the next day was added such that final concentrations were 10000, 3000, 1000, 300, 100, 30, 10, 3, and 1 nM. 72 hours after the addition, 10 μL of Cell Counting Kit-8 (DOJINDO LABORATORIES) was added to each well. After incubation for 1 to 4 hours, absorbance OD450 at 450 nm was measured. In addition, absorption OD650 at 650 nm as a reference wavelength was measured.
OD450-OD650 for each condition was calculated, and then the inhibition rates when OD450-OD650 of negative control (DMSO only) and OD450-OD650 of Blank (without cells) were set to 0% and 100%, respectively, were calculated. Then, non-linear regression analysis was performed for logarithmic dose and inhibition rate using a two-parameter logistic model to estimate IC50 values.

pIC50 [1]	GI50 [2] [nM]	Compound
8.59	47	CN[C@H]1C[C@@H]([C@H](C)Nc2cc(-c3n[nH]c(=O)o3)ccc2C(F)(F)F)C1 [Example 192, 5-[3-({(1S)-1-[(1s,3R)-3-(methylamino)cyclobutyl]ethyl}amino)-4-(trifluoromethyl)phenyl]-1,3,4-oxadiazol-2(3H)-one hydrochloride]
8.70	28	C[C@H](Nc1cc(-c2n[nH]c(=O)o2)cc(Br)c1Cl)[C@H]1CC[C@H](N)CC1 [Example 171, 5-[3-({(1S)-1-[(1r,4S)-4-aminocyclohexyl]ethyl}amino)-5-bromo-4-chlorophenyl]-1,3,4-oxadiazol-2(3H)-one dihydrochloride]
8.08	300	C[C@H](Nc1nc(-c2n[nH]c(=O)o2)ccc1C(F)(F)F)C1CCNCC1 [Example 114, 5-[6-{[(1S)-1-(piperidin-4-yl)ethyl]amino}-5-(trifluoromethyl)pyridin-2-yl]-1,3,4-oxadiazol-2(3H)-one hydrochloride hydrochloride]
8.37	600	CC(CC1CCNCC1)Nc1cc(-c2n[nH]c(=O)o2)ccc1C(F)(F)F (stereo not shown) [Example 81, 5-[3-{[1-(piperidin-4-yl)propan-2-yl]amino}-4-(trifluoromethyl)phenyl]-1,3,4-oxadiazol-2(3H)-one hydrochloride]
8.04	380	C[C@H](Nc1cc(-c2n[nH]c(=O)o2)ccc1C(F)(F)F)C1CC2(CNC2)C1 [Example 149, 5-[3-{[(1S)-1-(2-azaspiro[3.3]heptan-6-yl)ethyl]amino}-4-(trifluoromethyl)phenyl]-1,3,4-oxadiazol-2(3H)-one trifluoroacetate]
8.00	250	CC(Oc1cc(-c2n[nH]c(=O)o2)ccc1C(F)(F)F)C1CCNCC1 (stereo not shown) [Example 239, 5-{3-[1-(piperidin-4-yl)ethoxy]-4-(trifluoromethyl)phenyl}-1,3,4-oxadiazol-2(3H)-one]
7.68	440	O=c1[nH]nc(-c2ccc(C(F)(F)F)c(NC[C@@H]3CCNC[C@H]3F)c2)o1 [Example 127, 5-[3-({[(3S,4S)-3-fluoropiperidin-4-yl]methyl}amino)-4-(trifluoromethyl)phenyl]-1,3,4-oxadiazol-2(3H)-one hydrochloride]
8.22	370	CC1(CNc2cc(-c3n[nH]c(=O)o3)ccc2C(F)(F)F)CCNCC1 [Example 57, 5-[3-{[(4-methylpiperidin-4-yl)methyl]amino}-4-(trifluoromethyl)phenyl]-1,3,4-oxadiazol-2(3H)-one hydrochloride]
8.92	40	O=c1[nH]nc(-c2cc(F)c(C(F)(F)F)c(N[C@@H](CF)C3CCNCC3)c2)o1 [Example 160, 5-[3-fluoro-5-{[(1R)-2-fluoro-1-(piperidin-4-yl)ethyl]amino}-4-(trifluoromethyl)phenyl]-1,3,4-oxadiazol-2(3H)-one hydrochloride]
7.23	3600	NCC1CCN(c2cc(-c3n[nH]c(=O)o3)ccc2Cl)CC1 [Example 6, 5-{3-[4-(aminomethyl)piperidin-1-yl]-4-chlorophenyl}-1,3,4-oxadiazol-2(3H)-one]
7.89	3100	O=c1[nH]nc(-c2ccc(C(F)(F)F)c(NCCC3CCCNC3)c2)o1 (stereo not shown) [Example 60, 5-[3-{[2-(piperidin-3-yl)ethyl]amino}-4-(trifluoromethyl)phenyl]-1,3,4-oxadiazol-2(3H)-one hydrochloride]
8.74	45	C[C@H](Nc1cc(-c2n[nH]c(=O)o2)cc(C(F)(F)F)c1Cl)[C@H]1C[C@@H](N)C1 [Example 183, 5-[3-({(1S)-1-[(1s,3R)-3-aminocyclobutyl]ethyl}amino)-4-chloro-5-(trifluoromethyl)phenyl]-1,3,4-oxadiazol-2(3H)-one hydrochloride]
7.85	1000	O=c1[nH]nc(-c2ccc(C(F)(F)F)c(NCCN3CCNCC3)c2)o1 [Example 65, 5-[3-{[2-(piperazin-1-yl)ethyl]amino}-4-(trifluoromethyl)phenyl]-1,3,4-oxadiazol-2(3H)-one dihydrochloride]
8.21	160	CCN[C@H]1CC[C@H]([C@H](C)Nc2cc(-c3n[nH]c(=O)o3)ccc2C(F)(F)F)CC1 [Example 193, 5-[3-({(1S)-1-[(1r,4S)-4-(ethylamino)cyclohexyl]ethyl}amino)-4-(trifluoromethyl)phenyl]-1,3,4-oxadiazol-2(3H)-one hydrochloride]
8.52	81	C[C@@H]1CN([C@@H](C)[C@H]2CC[C@H](N)CC2)c2cc(-c3n[nH]c(=O)o3)cc(F)c2O1 [Example 253, 5-[(2R)-4-{(1S)-1-[(1r,4S)-4-aminocyclohexyl]ethyl}-8-fluoro-2-methyl-3,4-dihydro-2H-1,4-benzoxazin-6-yl]-1,3,4-oxadiazol-2(3H)-one hydrochloride]
8.43	79	N[C@H]1CC[C@H](COc2cc(-c3n[nH]c(=O)o3)ccc2Cl)CC1 [Example 241, 5-(3-{[(1r,4r)-4-aminocyclohexyl]methoxy}-4-chlorophenyl)-1,3,4-oxadiazol-2(3H)-one]
7.85	610	CC1CC(CNc2cc(-c3n[nH]c(=O)o3)ccc2C(F)(F)F)CCN1 (stereo not shown) [Example 143, 5-[3-{[(2-methylpiperidin-4-yl)methyl]amino}-4-(trifluoromethyl)phenyl]-1,3,4-oxadiazol-2(3H)-one hydrochloride]
9.10	53	C[C@H](Nc1cc(-c2n[nH]c(=O)o2)cc(Cl)c1Cl)C1CCNCC1 [Example 79, 5-(3,4-dichloro-5-{[(1S)-1-(piperidin-4-yl)ethyl]amino}phenyl)-1,3,4-oxadiazol-2(3H)-one dihydrochloride]
7.72	270	O=c1[nH]nc(-c2ccc(C(F)(F)F)c(NCC3(F)CCNCC3)c2)o1 [Example 108, 5-[3-{[(4-fluoropiperidin-4-yl)methyl]amino}-4-(trifluoromethyl)phenyl]-1,3,4-oxadiazol-2(3H)-one hydrochloride]
7.96	500	CC(CCCCN)Nc1cc(-c2n[nH]c(=O)o2)ccc1C(F)(F)F (stereo not shown) [Example 5, 5-{3-[(6-aminohexan-2-yl)amino]-4-(trifluoromethyl)phenyl}-1,3,4-oxadiazol-2(3H)-one hydrochloride]
8.24	92	C[C@H](Nc1cc(-c2n[nH]c(=O)o2)ccc1C(F)(F)F)[C@@H]1[C@@H]2CC[C@H]1CNC2 [Example 155, 5-[3-({(1S)-1-[(1R,5S,8r)-3-azabicyclo[3.2.1]octan-8-yl]ethyl}amino)-4-(trifluoromethyl)phenyl]-1,3,4-oxadiazol-2(3H)-one hydrochloride]
8.66	25	C[C@H](Nc1cc(-c2n[nH]c(=O)o2)cc(F)c1C(F)(F)F)[C@H]1C[C@@H](N)C1 [Example 165, 5-[3-({(1S)-1-[(1s,3R)-3-aminocyclobutyl]ethyl}amino)-5-fluoro-4-(trifluoromethyl)phenyl]-1,3,4-oxadiazol-2(3H)-one]
8.09	340	O=c1[nH]nc(-c2cc(F)c(Cl)c(NCC3(F)CCNCC3)c2)o1 [Example 123, 5-(4-chloro-3-fluoro-5-{[(4-fluoropiperidin-4-yl)methyl]amino}phenyl)-1,3,4-oxadiazol-2(3H)-one hydrochloride]
8.51	570	N[C@H]1CC[C@H](Nc2cc(-c3n[nH]c(=O)o3)cc(F)c2C(F)(F)F)CC1 [Example 36, 5-[3-{[(1r,4r)-4-aminocyclohexyl]amino}-5-fluoro-4-(trifluoromethyl)phenyl]-1,3,4-oxadiazol-2(3H)-one hydrochloride]
8.39	200	N[C@H]1CC[C@H](CCc2cc(-c3n[nH]c(=O)o3)ccc2C(F)(F)F)CC1 [Example 27, 5-[3-{2-[(1r,4s)-4-aminocyclohexyl]ethyl}-4-(trifluoromethyl)phenyl]-1,3,4-oxadiazol-2(3H)-one hydrochloride]
8.66	100	CC(N)[C@H]1CC[C@H](Nc2cc(-c3n[nH]c(=O)o3)ccc2C(F)(F)F)CC1 (stereo partly shown) [Example 39, 5-[3-{[(1r,4r)-4-(1-aminoethyl)cyclohexyl]amino}-4-(trifluoromethyl)phenyl]-1,3,4-oxadiazol-2(3H)-one hydrochloride]
